ChEMBL document CHEMBL1123974, “A comprehensive method for determining hydrophobicity constants by reversed-phase high-performance liquid chromatography” (J Med Chem, 1988)

How the values were obtained:
[1] = physchem; conditions: octanol/water
[2] = octanol/water

| SMILES | logP [1] | Log k' w [2] |
| --- | --- | --- |
| Nc1cccc(F)c1 | 1.3 | 1.225 |
| COc1cccc(O)c1 [1-hydroxy-3-methoxybenzene] | – | 1.254 |
| Oc1ccc(I)cc1 | – | 2.795 |
| CCc1cccc(O)c1 | 2.4 | 2.228 |
| CC12CCC(C(=O)C1=O)C2(C)C (centres undefined) | 1.52 | 1.42 |
| Nc1ccc(Cl)cc1 [4-CHLOROANILINE] | 1.83 | 1.855 |
| c1ccc2[nH]ccc2c1 [INDOLE] | 2.14 | 2.014 |
| COc1ccc([N+](=O)[O-])cc1 | – | 1.857 |
| O=[N+]([O-])c1ccc(Cl)cc1 | 2.3 | 2.165 |
| c1ccc(/N=N/c2ccccc2)cc1 [AZOBENZENE] | 3.82 | 3.961 |
| N#Cc1cccc(O)c1 | 1.7 | 1.557 |
| Oc1ccccc1 [PHENOL] | – | 1.251 |
| Nc1cccc2ccccc12 | – | 2.203 |
| COc1ccc(O)cc1 [MEQUINOL] | – | 1.004 |
| Nc1ccc(Br)cc1 [4-BROMOANILINE] | – | 2.043 |
| Cc1ccc(O)cc1 [p-CRESOL] | – | 1.759 |

| SMILES | logP [1] | Log k' w [2] |
| --- | --- | --- |
| COc1ccc(N)cc1 | 0.95 | 0.603 |
| Cc1ccc(C(C)C)c(O)c1 [THYMOL] | – | 3.092 |
| Oc1cccc(C(F)(F)F)c1 | – | 2.847 |
| Oc1cccc(F)c1 | – | 1.749 |
| Oc1cccc(Cl)c1 | – | 2.391 |
| CC(=O)c1ccccc1 [ACETOPHENONE] | – | 1.359 |
| N#Cc1cccc([N+](=O)[O-])c1 | 1.17 | 1.014 |
| Oc1ccc(Cl)cc1 [PARACHLOROPHENOL] | – | 2.31 |
| COc1ccc(CO)cc1 | 1.1 | 0.815 |
| Cc1ccc(N)cc1 | – | 1.405 |
| CC(=O)Nc1ccc(Br)cc1 | 2.29 | 2.293 |
| O=[N+]([O-])c1ccccc1 [NITROBENZENE] | – | 1.633 |
| N#Cc1ccccc1 [BENZONITRILE] | – | 1.279 |
| Oc1cccc(O)c1 [RESORCINOL] | – | 0.544 |
| COc1ccccc1 [ANISOLE] | – | 2.006 |
| Oc1ccc(F)cc1 | – | 1.575 |
